Reference: ChEMBL document CHEMBL1145285, “Design and crystal structures of protein kinase B-selective inhibitors in complex with protein kinase A and mutants” (J Med Chem, 2005)

Tests used:
[1] = target: cAMP-dependent protein kinase catalytic subunit alpha (Bos taurus) (UniProt P00517); assay: Binding constant for protein kinase AB3 (3 PKB amino acid substitutions)
[2] = target: cAMP-dependent protein kinase catalytic subunit alpha (Bos taurus) (UniProt P00517); assay: Binding constant for protein kinase AB5 (5 PKB amino acid substitutions)
[3] = Inhibition of protein kinase AB (PKB amino acid substitutions); type: protein assay
[4] = Inhibition protein kinase A

A Kd [1] of 77 nM, a Kd [2] of 8 nM and an IC50 [3] of 20 nM were found for `CC1(C)CCCN(c2ccc(O)c(C(=O)c3ccc(C(=O)N[C@@H]4CCCNC[C@H]4NC(=O)c4ccncc4)cc3)c2)C1.Cl.Cl.Cl` in this work. The IC50 [4] was 1900 nM.

A Kd [1] of 3770 nM, a Kd [2] of 260 nM and an IC50 [3] of 750 nM were found for `CC1(C)CCCNC1c1ccc(O)c(C(=O)c2ccc(C(=O)N[C@@H]3CCCNC[C@H]3NC(=O)c3ccncc3)cc2)c1F.Cl.Cl.Cl` (stereo partly specified) in this work. The IC50 [4] was 2400 nM.

A Kd [1] of 41 nM, an IC50 [3] of 23 nM and an IC50 [4] of 30 nM were found for `CN(C)c1ccc(O)c(C(=O)c2ccc(C(=O)N[C@@H]3CCCNC[C@H]3NC(=O)c3ccncc3)cc2)c1.Cl.Cl.Cl` in this work.

An IC50 [3] of 40 nM was found for `CC1(C)CCN(c2ccc(O)c(C(=O)c3ccc(C(=O)N[C@@H]4CCCNC[C@H]4NC(=O)c4ccncc4)cc3)c2)CC1.Cl.Cl.Cl` in this work.

A Kd [1] of 193 nM, a Kd [2] of 9 nM and an IC50 [3] of 20 nM were found for `Cl.Cl.Cl.O=C(N[C@@H]1CCCNC[C@H]1NC(=O)c1ccncc1)c1ccc(C(=O)c2cc(N3CCCCC3)ccc2O)cc1` in this work. For the same compound, the IC50 [4] was 400 nM.
